Results published in patent publication US11498899B2, “Nitrone herbicides” (FMC Corporation, priority 2016, dated 2022).

Experiments:
kochia (Kochia scoparia) [1] = assay: Test A preemergence, visual injury rating 0-100; type: in vivo
[2] = tested on: ragweed (common ragweed, Ambrosia elatior); assay: Test A preemergence, visual injury rating 0-100; type: in vivo
[3] = tested on: pigweed (Amaranthus retroflexus); assay: Test A preemergence, visual injury rating 0-100; type: in vivo
[4] = tested on: ryegrass, Italian (Italian ryegrass, Lolium multiflorum); assay: Test A preemergence, visual injury rating 0-100; type: in vivo
[5] = tested on: foxtail, giant (giant foxtail, Setaria faberii); assay: Test A preemergence, visual injury rating 0-100; type: in vivo
[6] = tested on: barnyardgrass (Echinochloa crus-galli); assay: Test B flooded paddy test, visual rating 0-100; settings: Flood, 250 g ai/ha, applied to paddy water, rated after 13 to 15 days
[7] = tested on: galium (catchweed bedstraw, Galium aparine); assay: Test A postemergence, visual injury rating 0-100; type: in vivo; settings: 0 to 100 scale
[8] = tested on: blackgrass (Alopecurus myosuroides); assay: Test A postemergence, visual injury rating 0-100; type: in vivo; settings: 0 to 100 scale
[9] = tested on: wheat (Triticum aestivum); assay: Test A postemergence, visual injury rating 0-100; type: in vivo; settings: 0 to 100 scale
kochia (Kochia scoparia) [10] = assay: Test A postemergence, visual injury rating 0-100; type: in vivo; settings: 0 to 100 scale
corn (Zea mays) = assay: Test A postemergence, visual injury rating 0-100; type: in vivo; settings: 0 to 100 scale
[11] = tested on: ragweed (common ragweed, Ambrosia elatior); assay: Test A postemergence, visual injury rating 0-100; type: in vivo; settings: 0 to 100 scale
[12] = tested on: pigweed (Amaranthus retroflexus); assay: Test A postemergence, visual injury rating 0-100; type: in vivo; settings: 0 to 100 scale
[13] = tested on: ryegrass, Italian (Italian ryegrass, Lolium multiflorum); assay: Test A postemergence, visual injury rating 0-100; type: in vivo; settings: 0 to 100 scale
[14] = tested on: barnyardgrass (Echinochloa crus-galli); assay: Test A postemergence, visual injury rating 0-100; type: in vivo; settings: 0 to 100 scale
[15] = tested on: foxtail, giant (giant foxtail, Setaria faberii); assay: Test A postemergence, visual injury rating 0-100; type: in vivo; settings: 0 to 100 scale
[16] = tested on: ducksalad (Heteranthera limosa); assay: Test B flooded paddy test, visual rating 0-100; settings: Flood, 250 g ai/ha, applied to paddy water, rated after 13 to 15 days
rice (Oryza sativa) = assay: Test B flooded paddy test, visual rating 0-100 (0 no effect, 100 complete control); settings: Flood, 250 g ai/ha, applied to paddy water, rated after 13 to 15 days
[17] = tested on: barnyardgrass (Echinochloa crus-galli); assay: Test A preemergence, visual injury rating 0-100 (0 no effect, 100 complete control); type: in vivo

## CC1=[N+]([O-])[C@H](C(=O)Nc2cccc(F)c2F)[C@@H](c2ccc(C)cc2)C1 (relative stereo) [Compound 6, rel-(2S,3R)—N-(2,3-Difluorophenyl)-3,4-dihydro-5-methyl-3-(4-methylphenyl)-2H-pyrrole-2-carboxamide 1-oxide]
Kochia (Kochia scoparia) [1]; 125 g ai/ha
  Kochia plant response rating (0 to 100 scale): 70
Kochia (Kochia scoparia) [1]; 500 g ai/ha, 0 to 100 scale
  Kochia plant response rating: 70
[2]; 125 g ai/ha
  Ragweed plant response rating (0 to 100 scale): 40
[2]; 500 g ai/ha, 0 to 100 scale
  Ragweed plant response rating: 100
[3]; 125 g ai/ha
  Pigweed plant response rating (0 to 100 scale): 80
[3]; 500 g ai/ha, 0 to 100 scale
  Pigweed plant response rating: 90
[4]; 125 g ai/ha
  Ryegrass, Italian plant response rating (0 to 100 scale): 80
[4]; 500 g ai/ha, 0 to 100 scale
  Ryegrass, Italian plant response rating: 90
[5]; 125 g ai/ha
  Foxtail, Giant plant response rating (0 to 100 scale): 100
[5]; 500 g ai/ha, 0 to 100 scale
  Foxtail, Giant plant response rating: 100
[6]
  Barnyardgrass plant response rating (0 to 100 scale): 85
[7]; 125 g ai/ha
  Galium plant response rating: 50
[7]; 500 g ai/ha
  Galium plant response rating: 70
[8]; 125 g ai/ha
  Blackgrass plant response rating: 50
[8]; 500 g ai/ha
  Blackgrass plant response rating: 80
[9]; 125 g ai/ha
  Wheat plant response rating: 60
[9]; 500 g ai/ha
  Wheat plant response rating: 80
Kochia (Kochia scoparia) [10]; 125 g ai/ha
  Kochia plant response rating: 30
Kochia (Kochia scoparia) [10]; 500 g ai/ha
  Kochia plant response rating: 70
Corn (Zea mays); 125 g ai/ha
  Corn plant response rating: 30
Corn (Zea mays); 500 g ai/ha
  Corn plant response rating: 80
[11]; 125 g ai/ha
  Ragweed plant response rating: 0
[11]; 500 g ai/ha
  Ragweed plant response rating: 60
[12]; 125 g ai/ha
  Pigweed plant response rating: 40
[12]; 500 g ai/ha
  Pigweed plant response rating: 50
[13]; 125 g ai/ha
  Ryegrass, Italian plant response rating: 50
[13]; 500 g ai/ha
  Ryegrass, Italian plant response rating: 60
[14]; 125 g ai/ha
  Barnyardgrass plant response rating: 90
[14]; 500 g ai/ha
  Barnyardgrass plant response rating: 90
[15]; 125 g ai/ha
  Foxtail, Giant plant response rating: 90
[15]; 500 g ai/ha
  Foxtail, Giant plant response rating: 90
[16]
  Ducksalad plant response rating (0 to 100 scale): 100
Rice (Oryza sativa)
  Rice plant response rating (0 to 100 scale): 0
[17]; 125 g ai/ha
  Barnyardgrass plant response rating (0 to 100 scale): 100
[17]; 500 g ai/ha, 0 to 100 scale
  Barnyardgrass plant response rating: 100

## CC1=[N+]([O-])[C@H](C(=O)Nc2cccc(F)c2F)[C@@H](c2ccc(C(F)(F)F)c(F)c2)C1 (relative stereo) [Compound 61, rel-(2S,3R)—N-(2,3-Difluorophenyl)-3-[3-fluoro-4-(trifluoromethyl)phenyl]-3,4-dihydro-5-methyl-2H-pyrrole-2-carboxamide 1-oxide]
Kochia (Kochia scoparia) [1]; 125 g ai/ha
  Kochia plant response rating (0 to 100 scale): 30
Kochia (Kochia scoparia) [1]; 500 g ai/ha
  Kochia plant response rating (0 to 100 scale): 80
[2]; 125 g ai/ha
  Ragweed plant response rating (0 to 100 scale): 50
[2]; 500 g ai/ha
  Ragweed plant response rating (0 to 100 scale): 80
[3]; 125 g ai/ha
  Pigweed plant response rating (0 to 100 scale): 80
[3]; 500 g ai/ha
  Pigweed plant response rating (0 to 100 scale): 90
[4]; 125 g ai/ha
  Ryegrass, Italian plant response rating (0 to 100 scale): 80
[4]; 500 g ai/ha
  Ryegrass, Italian plant response rating (0 to 100 scale): 90
[5]; 125 g ai/ha
  Foxtail, Giant plant response rating (0 to 100 scale): 90
[5]; 500 g ai/ha
  Foxtail, Giant plant response rating (0 to 100 scale): 90
[6]
  Barnyardgrass plant response rating (0 to 100 scale): 65
[7]; 125 g ai/ha
  Galium plant response rating: 50
[7]; 500 g ai/ha
  Galium plant response rating: 60
[8]; 125 g ai/ha
  Blackgrass plant response rating: 50
[8]; 500 g ai/ha
  Blackgrass plant response rating: 90
[9]; 125 g ai/ha
  Wheat plant response rating: 70
[9]; 500 g ai/ha
  Wheat plant response rating: 90
Kochia (Kochia scoparia) [10]; 125 g ai/ha
  Kochia plant response rating: 0
Kochia (Kochia scoparia) [10]; 500 g ai/ha
  Kochia plant response rating: 30
Corn (Zea mays); 125 g ai/ha
  Corn plant response rating: 50
Corn (Zea mays); 500 g ai/ha
  Corn plant response rating: 90
[11]; 125 g ai/ha
  Ragweed plant response rating: 0
[11]; 500 g ai/ha
  Ragweed plant response rating: 50
[12]; 125 g ai/ha
  Pigweed plant response rating: 30
[12]; 500 g ai/ha
  Pigweed plant response rating: 50
[13]; 125 g ai/ha
  Ryegrass, Italian plant response rating: 80
[13]; 500 g ai/ha
  Ryegrass, Italian plant response rating: 80
[14]; 125 g ai/ha
  Barnyardgrass plant response rating: 70
[14]; 500 g ai/ha
  Barnyardgrass plant response rating: 90
[15]; 125 g ai/ha
  Foxtail, Giant plant response rating: 70
[15]; 500 g ai/ha
  Foxtail, Giant plant response rating: 90
[16]
  Ducksalad plant response rating (0 to 100 scale): 74
Rice (Oryza sativa)
  Rice plant response rating (0 to 100 scale): 0
[17]; 125 g ai/ha
  Barnyardgrass plant response rating (0 to 100 scale): 90
[17]; 500 g ai/ha
  Barnyardgrass plant response rating (0 to 100 scale): 90

## CC1=[N+]([O-])[C@H](C(=O)Nc2cccc(F)c2F)[C@@H](c2ccc(C(F)F)cc2)C1 (relative stereo) [Compound 93, rel-(2S,3R)-3-(4-Difluoromethyl)phenyl)-N-(2,3-difluorophenyl) 3,4-dihydro-5-methyl-2H-pyrrole-2-carboxamide 1-oxide]
Kochia (Kochia scoparia) [1]; 125 g ai/ha
  Kochia plant response rating (0 to 100 scale): 30
Kochia (Kochia scoparia) [1]; 500 g ai/ha
  Kochia plant response rating (0 to 100 scale): 80
[2]; 125 g ai/ha
  Ragweed plant response rating (0 to 100 scale): 70
[2]; 500 g ai/ha
  Ragweed plant response rating (0 to 100 scale): 90
[3]; 125 g ai/ha
  Pigweed plant response rating (0 to 100 scale): 80
[3]; 500 g ai/ha
  Pigweed plant response rating (0 to 100 scale): 90
[4]; 125 g ai/ha
  Ryegrass, Italian plant response rating (0 to 100 scale): 70
[4]; 500 g ai/ha
  Ryegrass, Italian plant response rating (0 to 100 scale): 90
[5]; 125 g ai/ha
  Foxtail, Giant plant response rating (0 to 100 scale): 90
[5]; 500 g ai/ha
  Foxtail, Giant plant response rating (0 to 100 scale): 90
[6]
  Barnyardgrass plant response rating (0 to 100 scale): 70
[7]; 125 g ai/ha
  Galium plant response rating: 60
[7]; 500 g ai/ha
  Galium plant response rating: 70
[8]; 125 g ai/ha
  Blackgrass plant response rating: 60
[8]; 500 g ai/ha
  Blackgrass plant response rating: 70
[9]; 125 g ai/ha
  Wheat plant response rating: 60
[9]; 500 g ai/ha
  Wheat plant response rating: 80
Kochia (Kochia scoparia) [10]; 125 g ai/ha
  Kochia plant response rating: 0
Kochia (Kochia scoparia) [10]; 500 g ai/ha
  Kochia plant response rating: 80
Corn (Zea mays); 125 g ai/ha
  Corn plant response rating: 60
Corn (Zea mays); 500 g ai/ha
  Corn plant response rating: 90
[11]; 125 g ai/ha
  Ragweed plant response rating: 0
[11]; 500 g ai/ha
  Ragweed plant response rating: 70
[12]; 125 g ai/ha
  Pigweed plant response rating: 50
[12]; 500 g ai/ha
  Pigweed plant response rating: 80
[13]; 125 g ai/ha
  Ryegrass, Italian plant response rating: 60
[13]; 500 g ai/ha
  Ryegrass, Italian plant response rating: 70
[14]; 125 g ai/ha
  Barnyardgrass plant response rating: 70
[14]; 500 g ai/ha
  Barnyardgrass plant response rating: 90
[15]; 125 g ai/ha
  Foxtail, Giant plant response rating: 80
[15]; 500 g ai/ha
  Foxtail, Giant plant response rating: 90
[16]
  Ducksalad plant response rating (0 to 100 scale): 100
Rice (Oryza sativa)
  Rice plant response rating (0 to 100 scale): 15
[17]; 125 g ai/ha
  Barnyardgrass plant response rating (0 to 100 scale): 90
[17]; 500 g ai/ha
  Barnyardgrass plant response rating (0 to 100 scale): 90
